ChEMBL document CHEMBL1122476 (J Med Chem, 1983)

Biological target: Glutamate receptor ionotropic, AMPA (Rattus norvegicus, UniProt P19490+P19491+P19492+P19493)
Experiment: Tested for inhibition of Specific DL-[H]Ionotropic glutamate receptor AMPA binding to rat brain membranes
Format: cell membranes, Membrane

- IC50: > 100 µM
Structure (SMILES): COc1noc(C)c1CC(N)C(=O)O (stereo unspecified)
